One assay has as its target JMJD2C (Homo sapiens (Human), UniProt Q9H3R0). In words: In vitro enzyme inhibition assay for JMJD2C activity (TR-FRET). Format: biochemical. The method, boiled down:
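Baculovirus JMJD2C (AA 2-372), 0.3 nM, with 300 nM biotin-H3K9me3 peptide and 2 μM α-ketoglutarate in HEPES pH 7.3 containing Fe(II) and ascorbate, 30 min at room temperature, 11-point dilutions. H3K9me2 product by TR-FRET (Eu-antibody/streptavidin-APC, 665/615 ratio); IC50 fitted.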
For orientation: TR-FRET usually uses a lanthanide donor and a delayed reading to cut background.

In assay [1] the test system is KYSE-150 esophageal carcinoma cell line. In words: In vitro cell-based assay: cellular proliferation via BrdU incorporation (ELISA). On the set-up: species or system human. The following applies: Homo sapiens, KYSE-150, 168 hours compound incubation. The method, boiled down:
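KYSE-150 cells (JMJD2C-amplified; SMAD4 and TP53 mutant), 2,000/well, were treated after overnight attachment with an 11-point series (100 μM to 2 nM) for 168 h. Proliferation was read by BrdU ELISA (2 h labelling, anti-BrdU-peroxidase, TMB, 450 nm) and IC50 fitted.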
In general terms: Dividing cells build labelled thymidine or BrdU into new DNA.

For orientation: IC50 means the concentration that gives 50% inhibition.

Chain of JMJD2C (Q9H3R0 2-372): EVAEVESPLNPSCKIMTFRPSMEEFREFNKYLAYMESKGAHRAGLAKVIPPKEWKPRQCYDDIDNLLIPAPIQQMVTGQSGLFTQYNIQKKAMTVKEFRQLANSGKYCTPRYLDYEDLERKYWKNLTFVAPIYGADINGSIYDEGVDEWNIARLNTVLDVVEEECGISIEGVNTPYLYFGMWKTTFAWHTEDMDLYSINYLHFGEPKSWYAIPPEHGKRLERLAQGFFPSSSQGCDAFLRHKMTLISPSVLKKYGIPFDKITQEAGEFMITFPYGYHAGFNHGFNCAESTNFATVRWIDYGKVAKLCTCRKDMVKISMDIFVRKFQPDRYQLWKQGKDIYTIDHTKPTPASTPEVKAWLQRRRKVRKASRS

With `COc1ccccc1-c1ccc2c(c1)OCC[C@H]2CNc1cnccc1C(=O)O` [Example 116, 3-({[(4R)-7-(2-methoxyphenyl)-3,4-dihydro-2H-1-benzopyran-4-yl]methyl}amino)pyridine-4-carboxylic acid], the 50% inhibitory concentration (IC50) (on JMJD2C; in assay [1]) was 100 to 1000 nM throughout.

In the case of `CN(c1cccc(C#N)c1)c1ccc2c(c1)OCC[C@H]2CNc1cnccc1C(=O)O` [Example 117, 3-({[(4R)-7-[(3-cyanophenyl)(methyl)amino]-3,4-dihydro-2H-1-benzopyran-4-yl]methyl}amino)pyridine-4-carboxylic acid], the IC50 (against JMJD2C; in assay [1]) was 100 to 1000 nM in each case.

In the case of `CN(c1ccc(C#N)cc1)c1ccc2c(c1)OCC[C@H]2CNc1cnccc1C(=O)O` [Example 119, 3-({[(4R)-7-[(4-cyanophenyl)(methyl)amino]-3,4-dihydro-2H-1-benzopyran-4-yl]methyl}amino)pyridine-4-carboxylic acid], the IC50 (on JMJD2C; in assay [1]) was 100 to 1000 nM in each case.

On to `CN(CC1CC1)c1ccc2c(c1)CCC[C@H]2CNc1cnccc1C(=O)O` [Example 120, 3-({[(1R)-6-[(cyclopropylmethyl)(methyl)amino]-1,2,3,4-tetrahydronaphthalen-1-yl]methyl}amino)pyridine-4-carboxylic acid], for which the concentration for half-maximal inhibition (IC50) (on JMJD2C; in assay [1]) was 100 to 1000 nM each time.

As to `COc1cccc(N(C)c2ccc3c(c2)CCC[C@H]3CNc2cnccc2C(=O)O)n1` [Example 121, 3-({[(1R)-6-[(6-methoxypyridin-2-yl)(methyl)amino]-1,2,3,4-tetrahydronaphthalen-1-yl]methyl}amino)pyridine-4-carboxylic acid], the values for the IC50 (on JMJD2C; in assay [1]) were 100 to 1000 nM and no more than 100 nM, respectively.

As to `N#Cc1ccccc1-c1ccc2c(c1)OCC[C@H]2CNc1cnccc1C(=O)O` [Example 124, 3-({[(4R)-7-(2-cyanophenyl)-3,4-dihydro-2H-1-benzopyran-4-yl]methyl}amino)pyridine-4-carboxylic acid], the IC50 fell in the range of 100 to 1000 nM at JMJD2C and 1000 to 10000 nM in assay [1].

Regarding `CN(c1ccc2c(c1)CCC[C@H]2CNc1cnccc1C(=O)O)c1ccn(C)n1` [Example 125, 3-({[(1R)-6-[methyl(1-methyl-1H-pyrazol-3-yl)amino]-1,2,3,4-tetrahydronaphthalen-1-yl]methyl}amino)pyridine-4-carboxylic acid], the IC50 (on JMJD2C; in assay [1]) was 100 to 1000 nM each time.

As for `CN(c1ccc2c(c1)COC2)c1ccc2c(c1)OCC[C@H]2CNc1cnccc1C(=O)O` [Example 127, 3-({[(4R)-7-[(1,3-dihydro-2-benzofuran-5-yl)(methyl)amino]-3,4-dihydro-2H-1-benzopyran-4-yl]methyl}amino)pyridine-4-carboxylic acid], the IC50 (against JMJD2C; in assay [1]) was 100 to 1000 nM each time.

As to `CN(c1ccc2c(c1)CCC2)c1ccc2c(c1)OCC[C@H]2CNc1cnccc1C(=O)O` [Example 131, 3-({[(4R)-7-[(2,3-dihydro-1H-inden-5-yl)(methyl)amino]-3,4-dihydro-2H-1-benzopyran-4-yl]methyl}amino)pyridine-4-carboxylic acid], the half-inhibitory concentration (IC50) on JMJD2C is 100 to 1000 nM; in assay [1], no more than 100 nM.

For `CN(c1ccc2c(c1)COC2)c1ccc2c(c1)CCC[C@H]2CNc1cnccc1C(=O)O` [Example 132, 3-({[(1R)-6-[(1,3-dihydro-2-benzofuran-5-yl)(methyl)amino]-1,2,3,4-tetrahydronaphthalen-1-yl]methyl}amino)pyridine-4-carboxylic acid], the IC50 against JMJD2C is 100 to 1000 nM; in assay [1], no more than 100 nM.

In the case of `CN(c1ccc2c(c1)CCC[C@H]2CNc1cnccc1C(=O)O)c1ccc2ccoc2c1` [Example 135, 3-({[(1R)-6-[(1-benzofuran-6-yl)(methyl)amino]-1,2,3,4-tetrahydronaphthalen-1-yl]methyl}amino)pyridine-4-carboxylic acid], the IC50 is 100 to 1000 nM against JMJD2C and no more than 100 nM in assay [1].

Regarding `CN(c1ccc2c(c1)OCC[C@H]2CNc1cnccc1C(=O)O)c1ccc2occc2c1` [Example 136, 3-({[(4R)-7-[(1-benzofuran-5-yl)(methyl)amino]-3,4-dihydro-2H-1-benzopyran-4-yl]methyl}amino)pyridine-4-carboxylic acid], the IC50 against JMJD2C was 100 to 1000 nM; in assay [1] it was no more than 100 nM.

Regarding `CN(c1ccc2c(c1)OCC[C@H]2CNc1cnccc1C(=O)O)c1ccc2ccoc2c1` [Example 141, 3-({[(4R)-7-[(1-benzofuran-6-yl)(methyl)amino]-3,4-dihydro-2H-1-benzopyran-4-yl]methyl}amino)pyridine-4-carboxylic acid], the concentration for half-maximal inhibition (IC50) (on JMJD2C; in assay [1]) was 100 to 1000 nM throughout.

For `O=C(O)c1ccncc1NCC1OCCc2ccccc21` (stereo not drawn) [Example 142, 3-[(3,4-dihydro-1H-2-benzopyran-1-ylmethyl)amino]pyridine-4-carboxylic acid], the IC50 against JMJD2C is 100 to 1000 nM; in assay [1], greater than 10000 nM.

Regarding `CN(c1ccc2c(c1)CCC[C@H]2CNc1cnccc1C(=O)O)c1cccs1` [Example 144, 3-({[(1R)-6-[methyl(thiophen-2-yl)amino]-1,2,3,4-tetrahydronaphthalen-1-yl]methyl}amino)pyridine-4-carboxylic acid], the 50% inhibitory concentration (IC50) was 100 to 1000 nM against JMJD2C and no more than 100 nM in assay [1].

On to `CN(c1ccccc1)c1ccc2c(c1)CCOC2CNc1cnccc1C(=O)O` (stereo not drawn) [Example 146, 3-[({6-[methyl(phenyl)amino]-3,4-dihydro-1H-2-benzopyran-1-yl}methyl)amino]pyridine-4-carboxylic acid], for which the concentration for half-maximal inhibition (IC50) at JMJD2C was 100 to 1000 nM; in assay [1] it was no more than 100 nM.

Turning to `O=C(O)c1ccncc1NC[C@@H]1CCCc2cc(N(CCO)c3ccccc3)ccc21` [Example 147, 3-({[(1R)-6-[(2-hydroxyethyl)(phenyl)amino]-1,2,3,4-tetrahydronaphthalen-1-yl]methyl}amino)pyridine-4-carboxylic acid], the IC50 (against JMJD2C; in assay [1]) was 100 to 1000 nM in each case.

On to `Cc1cccc(N(C)c2ccc3c(c2)OCC[C@H]3CNc2cnccc2C(=O)O)n1` [Example 148, 3-({[(4R)-7-[methyl(6-methylpyridin-2-yl)amino]-3,4-dihydro-2H-1-benzopyran-4-yl]methyl}amino)pyridine-4-carboxylic acid], for which the IC50 (against JMJD2C; in assay [1]) was 100 to 1000 nM each time.

Regarding `COc1cccc(N(C)c2ccc3c(c2)CCC[C@H]3CNc2cnccc2C(=O)O)c1` [Example 150, 3-({[(1R)-6-[(3-methoxyphenyl)(methyl)amino]-1,2,3,4-tetrahydronaphthalen-1-yl]methyl}amino)pyridine-4-carboxylic acid], the IC50 against JMJD2C is 100 to 1000 nM; in assay [1], no more than 100 nM.

For the compound `Cc1ccc(N(C)c2ccc3c(c2)OCC[C@H]3CNc2cnccc2C(=O)O)cc1F` [Example 151, 3-({[(4R)-7-[(3-fluoro-4-methylphenyl)(methyl)amino]-3,4-dihydro-2H-1-benzopyran-4-yl]methyl}amino)pyridine-4-carboxylic acid], the IC50 against JMJD2C was 100 to 1000 nM; in assay [1], no more than 100 nM.

For `CN(c1ccc2c(c1)OCC[C@H]2CNc1cnccc1C(=O)O)c1ccc(Cl)cn1` [Example 152, 3-({[(4R)-7-[(5-chloropyridin-2-yl)(methyl)amino]-3,4-dihydro-2H-1-benzopyran-4-yl]methyl}amino)pyridine-4-carboxylic acid], the concentration for half-maximal inhibition (IC50) (against JMJD2C; in assay [1]) was 100 to 1000 nM throughout.

For the origin of these results see patent US10106534B2 (CELGENE QUANTICEL RESEARCH, INC., priority 2014, dated 2018).
